{"source": "paper PMC6892603", "about": "(Bioorganic & medicinal chemistry letters, 2019)", "key": {"T. gondii RH-dTom": {"test_system": "T. gondii RH-dTom", "test": "Activity against T. gondii RH-dTom", "type": "cell-based, Toxoplasma gondii"}, "[1]": {"test": "Aqueous solubility by nephelometry", "type": "physicochemical", "conditions": "for Sol6.5: pH 6.5 phosphate buffer"}, "[2]": {"test": "In vitro intrinsic clearance in human liver microsomes", "type": "in vitro ADME"}, "T. cruzi CYP51": {"target": "T. cruzi CYP51 (Trypanosoma cruzi, UniProt Q7Z1V1)", "sequence (Q7Z1V1 whole entry)": "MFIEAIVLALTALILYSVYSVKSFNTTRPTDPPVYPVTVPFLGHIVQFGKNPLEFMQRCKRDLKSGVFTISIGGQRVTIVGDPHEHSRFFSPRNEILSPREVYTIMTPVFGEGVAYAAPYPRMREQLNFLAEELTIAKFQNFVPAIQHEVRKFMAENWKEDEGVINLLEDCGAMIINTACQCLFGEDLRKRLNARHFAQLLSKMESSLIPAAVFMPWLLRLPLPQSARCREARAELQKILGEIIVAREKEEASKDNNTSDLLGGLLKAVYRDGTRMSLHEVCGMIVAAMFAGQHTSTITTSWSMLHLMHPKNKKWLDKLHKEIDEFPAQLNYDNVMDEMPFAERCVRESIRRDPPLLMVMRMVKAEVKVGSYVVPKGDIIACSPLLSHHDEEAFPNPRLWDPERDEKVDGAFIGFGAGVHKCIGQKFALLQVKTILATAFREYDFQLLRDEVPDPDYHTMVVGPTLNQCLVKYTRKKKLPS", "test": "T. cruzi CYP51 heme ligand binding", "conditions": "Soret band"}, "[3]": {"test_system": "panel of cancer cell lines", "conditions": "read-out: IC50 against a panel of cancer cell lines; previously reported; cited from earlier work"}, "[4]": {"test": "Cytotoxicity screen, growth inhibition of HFF cells", "conditions": "human"}, "[5]": {"test": "Cytotoxicity screen, growth inhibition of HC-04 cells", "conditions": "human"}, "[6]": {"test_system": "L. donovani MHOM-ET 67/L82", "test": "Activity against L. donovani amastigotes, axenic assay"}, "[7]": {"test": "Cytotoxicity screen, growth inhibition of HEK 293T cells", "conditions": "human, Cytotoxicity IC50 HEK 293T, human kidney"}, "[8]": {"test_system": "Tulahuen C4 strain of Trypanosoma cruzi", "test": "microbe, parasite or virus in culture", "conditions": "read-out: T. cruzi IC50"}}}
{"smiles": "CN1CCN(c2ccc(S(=O)(=O)NCc3ccc(C(=O)Nc4cccnc4)cc3)cc2)CC1", "note": "[Compound 2]", "values": [{"measurement": "Effect on growth of Toxoplasma gondii", "setting": "T. gondii RH-dTom", "result": "no effect on the growth"}, {"measurement": "Sol6.5", "setting": "[1]", "result": "25 to 50", "unit": "µg/mL"}, {"measurement": "microsomal CLint", "setting": "[2]", "result": 45, "unit": "µL/min/mg"}, {"measurement": "T. cruzi CYP51 spectral response", "setting": "T. cruzi CYP51", "result": "moderate type II spectral response"}, {"measurement": "IC50", "setting": "[3]", "result": "0.01 to 1", "unit": "µM"}, {"measurement": "IC50", "setting": "[4]", "result": "> 50", "unit": "µM"}, {"measurement": "IC50", "setting": "[5]", "result": "> 50", "unit": "µM"}, {"measurement": "Effect on growth of Leishmania donovani", "setting": "[6]", "result": "no effect on the growth"}]}
{"smiles": "O=C(Nc1cccnc1)c1ccc(CNS(=O)(=O)c2ccc(N3CCOCC3)cc2)cc1", "note": "[Compound 5]", "values": [{"measurement": "Sol2.0", "setting": "[1]; 0.01 M HCl (approx. pH 2.0)", "result": "50 to 100", "unit": "µg/mL"}, {"measurement": "Sol6.5", "setting": "[1]", "result": "12.5 to 25", "unit": "µg/mL"}, {"measurement": "microsomal CLint", "setting": "[2]", "result": 69, "unit": "µL/min/mg"}, {"measurement": "IC50", "setting": "[5]", "result": "> 50", "unit": "µM"}, {"measurement": "IC50", "setting": "[7]", "result": "< 1", "unit": "µM"}]}
{"smiles": "Cc1ncccc1NC(=O)c1ccc(CNS(=O)(=O)c2ccc(N3CCN(C)CC3)cc2)cc1", "note": "[Compound 14]", "values": [{"measurement": "T. cruzi CYP51 spectral response", "setting": "T. cruzi CYP51", "result": "did not cause any changes"}]}
{"smiles": "CN1CCN(c2ccc(S(=O)(=O)NCc3ccc(-c4nc(-c5cccnc5)no4)cc3)cc2)CC1", "note": "[Compound 19]", "values": [{"measurement": "Sol6.5", "setting": "[1]", "result": "25 to 50", "unit": "µg/mL"}, {"measurement": "IC50", "setting": "[4]", "result": "> 50", "unit": "µM"}, {"measurement": "IC50", "setting": "[5]", "result": "> 50", "unit": "µM"}]}
{"smiles": "O=C(Cn1ccnc1[N+](=O)[O-])NCc1ccccc1", "note": "[benznidazole]", "values": [{"measurement": "IC50", "setting": "[8]", "result": "1.2 to 4.2", "unit": "µM"}]}
